Source: PMC9783227, “New Derivatives of the Multi-Stage Active Malaria Box Compound MMV030666 and Their Antiplasmodial Potencies” (Pharmaceuticals, 2022)
Where two headings read alike, the source gives them in different places.

Columns and labels:
P. falciparum NF54 = experiment: In vitro microplate assay against P. falciparum NF54 (3H-hypoxanthine incorporation); assay type: cell-based, Plasmodium falciparum; conditions: for IC50: average of four determinations, read-out: PfNF54 IC50; for S.I. = IC50 (Cyt.)/IC50 (PfNF54): L-6 cells IC50 / PfNF54 IC50
Protocol: (§1) All newly prepared compounds were tested for their in vitro activity against the chloroquine sensitive strain NF54 of P. falciparum. Cytotoxicity was determined using L-6 cells (rat skeletal myofibroblasts). Chloroquine and podophyllotoxin were used as standards.
The in vitro activity of compounds against erythrocytic stages of the drug sensitive NF54 strain of P. falciparum […] was determined using a ^3H-hypoxanthine incorporation assay. Compounds were dissolved in DMSO at 10 mg/mL and further diluted in medium before adding to parasite cultures that were incubated in RPMI 1640 medium without hypoxanthine, supplemented with HEPES (5.94 g/L), NaHCO3 (2.1 g/L), neomycin (100 U/mL), AlbumaxR (5 g/L) and washed human red blood cells A+ at 2.5% haematocrit (0.3% parasitaemia). Serial drug dilutions of eleven 3-fold dilutions steps covering a range from 100 to 0.002 µg/mL were prepared. The 96-well plates were incubated in a humidified atmosphere at 37 °C; 4% CO2, 3% O2, 93% N2. After 48 h of incubation time, 0.05 mL of ^3H-hypoxanthine (=0.5 µCi) was added to each well of the plate. The plates were incubated for further 24 h under the same conditions. Plates were then harvested using a Betaplate^TM cell harvester (Wallac, Zurich, Switzerland). Red blood cells were transferred onto a glass fiber filter and then washed with distilled water. The dried filters were inserted into a plastic foil with 10 mL of scintillation fluid and counted in a Betaplate^TM liquid scintillation counter (Wallac, Zurich, Switzerland). IC50 values were calculated from sigmoidal inhibition curves by linear regression using Microsoft Excel. Chloroquine (Sigma C6628) was used as control.

[1] = Parallel artificial membrane permeability assay (PAMPA); conditions: for Papp at 5 h, 200 µM: pH 7.4, Pe
Protocol: The parallel artificial membrane permeability assay (PAMPA) is a fast and easy high-throughput assay to determine passive permeability of compounds through semi-permeable membranes (for example the blood-brain-barrier) without the influence of efflux pumps or transporter molecules.
With the high-throughput PAMPA the newly synthesized compounds were tested for their passive permeability through cell membranes without the influence of efflux pumps or transporter proteins. The assay was performed using a Corning® Gentest^TM Pre-coated PAMPA Plate System with 96-well polystyrene plates. The bottom of the acceptor plate consists of a porous membrane, whereby the pores are lined with a lipid-oil-lipid triple layer. Stock solutions of each test compound at 10 mM were prepared in DMSO or methanol and diluted with phosphate-buffered saline (PBS at a pH of 7.4) to a final concentration of 200 µM. […] The donor plate (bottom plate) was filled with the compound solutions, whereby all compounds were tested in quadruplicates. Each well of the acceptor plate (top plate) was filled with PBS buffer. Donor and acceptor plates were combined and incubated at room temperature for 5 h. After that, the plates were separated and 150 µL of each well of both plates were transferred to 96-well UV plates (Greiner Bio-One). Absorption at different wavelengths covering a range from 200 to 300 nm was measured using a SpectraMax M3 UV plate reader. […] The plates were analyzed at the wavelength where the R^2 value of the calibration curve was higher than 0.99 [41]. […] (2) cequ=[cD(t)∗VD+cA(t)∗VA]/(VD+VA) where: • VD—donor well volume (0.3 mL); • VA—acceptor well volume (0.2 mL); • cA(t)—acceptor well compound concentration at time t; • cD(t)—donor well compound concentration at time t.
Recovery of compounds from donor and acceptor wells (mass retention) was calculated as shown in the equation below. Data were only accepted when recovery exceeded 70%. (3) R=1−[cD(t)∗VD+cA(t)∗VA]/(c0∗VD) where: • R—mass retention (%); • VD—donor well volume (0.3 mL); • VA—acceptor well volume (0.2 mL); • cA(t)—acceptor well compound concentration at time t; • cD(t)—donor well compound concentration at time t; • c0—initial donor well compound concentration (200 µM).

in vitro = conditions: rat
Protocol: as §1
The cytotoxicity assays were performed using 96-well microtiter plates, each well containing 4000 L-6 cells (a primary cell line derived from rat skeletal myofibroblasts, ATCC CRL-1458^TM) in 0.1 mL of RPMI 1640 medium supplemented with 1% glutamine (200 mM) and 10% fetal bovine serum. Serial drug dilutions of eleven 3-fold dilution steps covering a range from 100 to 0.002 µg/mL were prepared. After 70 h of incubation, the plates were inspected under an inverted microscope to assure growth of the controls and sterile conditions. Then, 0.01 mL resazurin solution (resazurin, 12.5 mg in 100 mL double-distilled water) was added to each well and the plates were incubated for another 2 h. The plates were read with a Spectramax Gemini XS microplate fluorometer (Molecular Devices Cooperation, Sunnyvale, CA, USA) using an excitation wavelength of 536 nm and an emission wavelength of 588 nm. IC50 values were calculated by linear regression from the sigmoidal dose inhibition curves using SoftmaxPro software (Molecular Devices Cooperation, Sunnyvale, CA, USA). Podophyllotoxin (Sigma P4405) was used as control.

[2] = Plasmodium falciparum, NF54, chloroquine sensitive strain NF54, erythrocytic stages
[3] = chloroquine sensitive strain NF54, erythrocytic stages
[4] = PAMPA, PBS pH 7.4, 200 µM, 5 h, room temperature

| SMILES | IC50 (P. falciparum NF54; [2]) [µM] | IC50 (P. falciparum NF54; [3]) [µM] | Papp at 5 h, 200 µM [1, 4] [×10⁻⁶ cm/s] | IC50 at 72 h (in vitro) [µM] | S.I. = IC50 (Cyt.)/IC50 (PfNF54) (P. falciparum NF54) | Pe [1, 4] | Pe ([1]; PAMPA standards) [nm/s] |
| --- | --- | --- | --- | --- | --- | --- | --- |
| CC(C)(C)OC(=O)N1CCN(c2ccc(NC(=O)c3cccc(C(F)(F)F)c3Nc3ccccc3)cc2)CC1 [Compound 41, tert-Butyl 4-{4-[2-anilino-3-(trifluoromethyl)benzamido]phenyl}piperazin-1-carboxylate] | 0.539 to 0.634 | 0.634 | 1.32 | 33.8 |  |  |  |
| CC(C)(C)OC(=O)N1CCN(c2ccc(NC(=O)c3cccc(C(F)(F)F)c3Sc3ccc(F)cc3)cc2)CC1 [Compound 39, tert-Butyl 4-(4-{2-[(4-fluorophenyl)sulfanyl]-3-(trifluoromethyl)benzamido}phenyl) piperazine-1-carboxylate] | 0.149 |  | 3.77 | 31.8 | 212.8 | 4.31 10^−6 cm/s |  |
| CC(C)(C)C(=O)N1CCN(c2ccccc2NC(=O)c2cccc([N+](=O)[O-])c2Oc2ccc(F)cc2)CC1 [Compound 34, N-{2-[4-(2,2-Dimethylpropanoyl)piperazin-1-yl]phenyl}-2-(4-fluorophenoxy)-3-nitrobenzamid] | 2.61 |  | 6.92 | 114 |  |  |  |
| CC(C)(C)OC(=O)N1CCN(c2ccccc2NC(=O)c2cccc([N+](=O)[O-])c2Oc2ccc(F)cc2)CC1 [Compound 28, tert-Butyl 4-{2-[2-(4-fluorophenoxy)-3-nitrobenzamido]phenyl}piperazine-1-carboxylate] | 0.591 |  | 1.68 | 90.4 |  |  |  |
| CC(C)(C)C(=O)N1CCN(c2ccccc2NC(=O)c2cccc(F)c2Oc2ccc(F)cc2)CC1 [Compound 35, N-{2-[4-(2,2-Dimethylpropanoyl)piperazin-1-yl]phenyl}-3-fluoro-2-(4-fluorophenoxy)benzamid] | 2.14 |  |  | 15.6 |  | 0.00 10^−6 cm/s |  |
| CC(C)(C)OC(=O)N1CCN(c2ccccc2NC(=O)c2cccc(N)c2Oc2ccc(F)cc2)CC1 [Compound 46, tert-Butyl 4-{2-[3-amino-2-(4-fluorophenoxy)benzamido]phenyl}piperazine-1-carboxylate] | 1.01 |  | 1.44 | 127 | 126.0 |  |  |
| CC(C)(C)OC(=O)N1CCN(c2ccccc2NC(=O)c2cccc(C(F)(F)F)c2Sc2ccc(F)cc2)CC1 [Compound 29, tert-Butyl 4-(2-{2-[(4-fluorophenyl)sulfanyl]-3-(trifluoromethyl)benz-amido}phenyl) piperazine-1-carboxylate] | 0.195 |  | 4.31 | 166 | 850.5 | 3.77 10^−6 cm/s |  |
| CC(C)(C)OC(=O)N1CCN(c2ccc(NC(=O)c3cccc(N)c3Oc3ccc(F)cc3)cc2)CC1 [Compound 47, tert-Butyl 4-{4-[3-amino-2-(4-fluorophenoxy)benzamido]phenyl}piperazine-1-carboxylate] | 3.08 |  | 0.62 | 158 |  |  |  |
| CC(C)(C)C(=O)N1CCN(c2ccc(NC(=O)c3ccccc3Oc3ccc(F)cc3)cc2)CC1 [Compound 43, N-{4-[4-(2,2-Dimethylpropanoyl)piperazin-1-yl]phenyl}-2-(4-fluorophenoxy)benzamid] | 5.62 |  | 0.02 | 184 |  |  |  |
| CC(C)(C)OC(=O)N1CCN(c2ccccc2NC(=O)c2ccccc2Oc2ccccc2)CC1 [Compound 30, tert-Butyl 4-[2-(2-phenoxybenzamido)phenyl]piperazin-1-carboxylate] | 1.13 |  | 8.52 | 22.5 | 19.87 |  |  |
| CC(C)(C)OC(=O)N1CCN(c2ccc(NC(=O)c3ccccc3Oc3ccccc3)cc2)CC1 [Compound 40, tert-Butyl 4-[4-(2-phenoxybenzamido)phenyl]piperazin-1-carboxylate] | 3.09 |  | 5.57 | 98.3 | 31.78 |  |  |
| CC(C)(C)OC(=O)N1CCN(c2ccc(NC(=O)c3cccc([N+](=O)[O-])c3Oc3ccc(F)cc3)cc2)CC1 [Compound 38, tert-Butyl 4-{4-[2-(4-fluorophenoxy)-3-nitrobenzamido]phenyl}piperazine-1-carb-oxylate] | 1.43 |  | 1.53 | 70.8 |  |  |  |
| CC(C)(C)OC(=O)N1CCN(c2ccc(NC(=O)c3ccccc3Oc3ccc(F)cc3)cc2)CC1 [Compound 36, tert-Butyl 4-{4-[2-(4-fluorophenoxy)benzamido]phenyl}piperazine-1-carboxylate] | 3.4 |  | 2.84 | 203 |  |  |  |
| CC(C)(C)OC(=O)N1CCN(c2ccccc2NC(=O)c2cccc(C(F)(F)F)c2Nc2ccccc2)CC1 [Compound 31, tert-Butyl 4-{2-[2-anilino-3-(trifluoromethyl)benzamido]phenyl}piperazin-1-carboxylate] | 0.614 to 0.636 | 0.614 | 0.65 | 129 |  |  |  |
| CC(C)(C)C(=O)N1CCN(c2ccc(NC(=O)c3cccc(F)c3Oc3ccc(F)cc3)cc2)CC1 [Compound 45, N-{4-[4-(2,2-Dimethylpropanoyl)piperazin-1-yl]phenyl}-3-fluoro-2-(4-fluorophenoxy)benzamid] | 1.79 |  | 5.13 | 109 |  |  |  |
| CC(C)(C)OC(=O)N1CCN(c2ccccc2NC(=O)c2cccc(C(F)(F)F)c2Nc2ccc(F)cc2)CC1 [Compound 32, tert-Butyl 4-{2-[2-(4-fluoroanilino)-3-(trifluoromethyl)benzamido]phenyl}piperazin-1-carboxylate] | 0.614 to 0.636 | 0.636 | 0.57 | 123 |  |  |  |
| NS(=O)(=O)c1cc2c(cc1Cl)NCNS2(=O)=O [Hydrochlorothiazide, reference compound] |  |  |  |  |  |  | 0.9 |
| CCN(CC)CCCC(C)Nc1ccnc2cc(Cl)ccc12 (stereo not drawn) [CQ, chloroquine, reference compound] |  |  |  |  | 9672 |  |  |
| Cn1c(=O)c2c(ncn2C)n(C)c1=O [Caffeine, reference compound] |  |  |  |  |  | 8.00 10^−6 cm/s | 80 |
| CC(C)(C)OC(=O)N1CCN(c2ccc(NC(=O)c3cccc(C(F)(F)F)c3Nc3ccc(F)cc3)cc2)CC1 [Compound 42] | 0.539 to 0.634 | 0.539 | 0.2 | 94.2 |  |  |  |
